In the NIST ThermoML archive (doi:10.1016/j.tca.2013.05.017):
Values joined by “and” are separate entries in the source; they are usually repeats but may differ in a detail not shown here. Equal entries are not always repeated.

Assay: molar heat capacity at constant pressure
Settings: 101.33 kPa, Crystal 2, Small (less than 1 g) adiabatic calorimetry

O=S(=O)([O-])[O-].[Sr+2] [sulfuric acid, strontium salt (1:1)]
Settings	molar heat capacity at constant pressure
145.71 K	68.41 J/K/mol
145.74 K	68.47 J/K/mol
146.11 K	68.55 J/K/mol
148.91 K	69.29 J/K/mol
148.95 K	69.42 J/K/mol
149.31 K	69.49 J/K/mol
150 K	69.86 J/K/mol
152.12 K	70.28 J/K/mol
152.16 K	70.25 J/K/mol
152.52 K	70.41 J/K/mol
155.34 K	71.05 J/K/mol
155.38 K	71.08 J/K/mol
155.74 K	71.27 J/K/mol
158.56 K	71.97 J/K/mol
158.6 K	72 J/K/mol
158.97 K	72.09 J/K/mol
160 K	72.51 J/K/mol
161.8 K	72.79 J/K/mol
161.84 K	72.83 J/K/mol
162.22 K	72.92 J/K/mol
165.05 K	73.58 J/K/mol
165.09 K	73.59 J/K/mol
165.46 K	73.73 J/K/mol
168.3 K	74.28 J/K/mol
168.34 K	74.31 J/K/mol
168.72 K	74.49 J/K/mol
170 K	74.99 J/K/mol
171.55 K	75.15 J/K/mol
171.6 K	75.19 J/K/mol
171.99 K	75.27 J/K/mol
174.82 K	75.93 J/K/mol
174.86 K	75.97 J/K/mol
175.25 K	76.02 J/K/mol
178.09 K	76.68 J/K/mol
178.13 K	76.74 J/K/mol
178.53 K	76.77 J/K/mol
180 K	77.33 J/K/mol
181.37 K	77.42 J/K/mol
181.41 K	77.48 J/K/mol
181.81 K	77.53 J/K/mol
184.66 K	78.14 J/K/mol
184.69 K	78.22 J/K/mol
185.09 K	78.29 J/K/mol
187.96 K	78.91 J/K/mol
187.99 K	78.94 J/K/mol
188.38 K	78.97 J/K/mol
190 K	79.65 J/K/mol
191.26 K	79.72 J/K/mol
191.28 K	79.71 J/K/mol
191.67 K	79.8 J/K/mol
194.56 K	80.51 J/K/mol and 80.47 J/K/mol
194.96 K	80.64 J/K/mol
197.83 K	81.24 J/K/mol
197.85 K	81.22 J/K/mol
198.25 K	81.33 J/K/mol
200 K	81.87 J/K/mol
201.09 K	81.92 J/K/mol
201.14 K	81.8 J/K/mol
201.53 K	81.9 J/K/mol
204.35 K	82.54 J/K/mol
204.42 K	82.41 J/K/mol
204.81 K	82.55 J/K/mol
207.6 K	83.18 J/K/mol
207.7 K	82.95 J/K/mol
208.08 K	83.16 J/K/mol
210 K	83.8 J/K/mol
210.83 K	83.81 J/K/mol
210.94 K	83.69 J/K/mol
211.34 K	83.83 J/K/mol
214.05 K	84.44 J/K/mol
214.18 K	84.34 J/K/mol
214.58 K	84.5 J/K/mol
217.26 K	85.04 J/K/mol
217.41 K	84.95 J/K/mol
217.8 K	85.11 J/K/mol
220 K	85.76 J/K/mol
220.45 K	85.67 J/K/mol
220.61 K	85.61 J/K/mol
221.01 K	85.74 J/K/mol
223.62 K	86.31 J/K/mol
223.8 K	86.22 J/K/mol
224.21 K	86.36 J/K/mol
226.78 K	86.94 J/K/mol
226.98 K	86.85 J/K/mol
227.39 K	86.96 J/K/mol
229.93 K	87.58 J/K/mol
230 K	87.75 J/K/mol
230.13 K	87.48 J/K/mol
230.55 K	87.57 J/K/mol
233.05 K	88.24 J/K/mol
233.27 K	88.13 J/K/mol
233.75 K	88.27 J/K/mol
236.17 K	88.83 J/K/mol
236.39 K	88.63 J/K/mol
236.88 K	88.89 J/K/mol
239.32 K	89.46 J/K/mol
239.54 K	89.39 J/K/mol
239.99 K	89.5 J/K/mol
240 K	89.75 J/K/mol
242.4 K	90.05 J/K/mol
242.63 K	89.95 J/K/mol
243.09 K	90.06 J/K/mol
245.47 K	90.64 J/K/mol
245.71 K	90.56 J/K/mol
246.17 K	90.67 J/K/mol
248.53 K	91.22 J/K/mol
248.77 K	91.15 J/K/mol
249.24 K	91.23 J/K/mol
250 K	91.7 J/K/mol
251.58 K	91.85 J/K/mol
251.81 K	91.78 J/K/mol
252.29 K	91.85 J/K/mol
254.61 K	92.43 J/K/mol
254.84 K	92.37 J/K/mol
255.33 K	92.47 J/K/mol
257.63 K	93 J/K/mol
257.87 K	92.94 J/K/mol
258.36 K	93.06 J/K/mol
260 K	93.66 J/K/mol
260.65 K	93.58 J/K/mol
260.88 K	93.56 J/K/mol
261.38 K	93.65 J/K/mol
263.66 K	94.16 J/K/mol
263.89 K	94.13 J/K/mol
264.39 K	94.26 J/K/mol
266.66 K	94.77 J/K/mol
266.89 K	94.7 J/K/mol
267.4 K	94.85 J/K/mol
269.66 K	95.39 J/K/mol
269.89 K	95.3 J/K/mol
270 K	95.59 J/K/mol
270.4 K	95.47 J/K/mol
272.64 K	95.96 J/K/mol
272.87 K	95.81 J/K/mol
273.15 K	96.15 J/K/mol
273.39 K	95.92 J/K/mol
275.63 K	96.38 J/K/mol
275.85 K	96.25 J/K/mol
276.38 K	96.39 J/K/mol
278.61 K	96.87 J/K/mol
278.83 K	96.75 J/K/mol
279.36 K	96.87 J/K/mol
280 K	97.3 J/K/mol
281.59 K	97.38 J/K/mol
281.8 K	97.23 J/K/mol
282.43 K	97.36 J/K/mol
284.56 K	97.83 J/K/mol
284.76 K	97.73 J/K/mol
285.4 K	97.91 J/K/mol
287.65 K	98.39 J/K/mol
287.81 K	98.24 J/K/mol
288.36 K	98.43 J/K/mol
290 K	98.96 J/K/mol
290.61 K	98.91 J/K/mol
290.76 K	98.75 J/K/mol
291.32 K	98.96 J/K/mol
293.57 K	99.37 J/K/mol
293.71 K	99.22 J/K/mol
294.28 K	99.43 J/K/mol
296.52 K	99.84 J/K/mol
296.64 K	99.69 J/K/mol
297.22 K	99.88 J/K/mol
298.15 K	100.3 J/K/mol
299.46 K	100.34 J/K/mol
299.56 K	100.14 J/K/mol
300 K	100.59 J/K/mol
300.17 K	100.26 J/K/mol
302.4 K	100.79 J/K/mol
302.48 K	100.58 J/K/mol
303.1 K	100.8 J/K/mol
305.33 K	101.19 J/K/mol
305.39 K	101 J/K/mol
306.03 K	101.22 J/K/mol
308.26 K	101.58 J/K/mol
308.3 K	101.41 J/K/mol
308.95 K	101.59 J/K/mol
310 K	102.03 J/K/mol
311.18 K	102.01 J/K/mol
311.19 K	101.81 J/K/mol
311.87 K	101.99 J/K/mol
314.08 K	102.29 J/K/mol
314.09 K	102.44 J/K/mol
314.78 K	102.4 J/K/mol
316.97 K	102.72 J/K/mol
316.99 K	102.82 J/K/mol
317.69 K	102.79 J/K/mol
319.85 K	103.14 J/K/mol
319.89 K	103.15 J/K/mol
320 K	103.44 J/K/mol
320.59 K	103.18 J/K/mol
322.73 K	103.57 J/K/mol
322.78 K	103.57 J/K/mol
